Reference: US9896435B2, “N-pyrrolidinyl,N′-pyrazolyl-urea, thiourea, guanidine and cyanoguanidine compounds as TrkA kinase inhibitors” (Array BioPharma Inc., priority 2012, dated 2018)

What follows are molecules tested against His-tagged recombinant human TrkA (Homo sapiens (Human), UniProt P04629) (assay: TrkA LanthaScreen Eu Kinase Binding Assay). Details: averaged IC50; LanthaScreen binding assay of Example A; read-out: TrkA Enzyme IC50.
Sequence of His-tagged recombinant human TrkA (P04629 440-796): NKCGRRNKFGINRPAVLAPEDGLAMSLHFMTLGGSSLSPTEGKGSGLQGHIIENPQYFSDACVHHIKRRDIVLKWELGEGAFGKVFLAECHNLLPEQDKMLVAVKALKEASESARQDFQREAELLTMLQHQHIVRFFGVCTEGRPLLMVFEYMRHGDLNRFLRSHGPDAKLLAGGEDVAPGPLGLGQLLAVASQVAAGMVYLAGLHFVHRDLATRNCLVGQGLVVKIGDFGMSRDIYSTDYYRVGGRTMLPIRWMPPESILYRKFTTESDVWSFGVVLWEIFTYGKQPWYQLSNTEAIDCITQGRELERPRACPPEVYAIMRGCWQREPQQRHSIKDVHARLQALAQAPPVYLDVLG
Protocol: TrkA binding activity was determined in a TrkA LanthaScreen™ Eu Kinase Binding Assay. 5 nM His-tagged recombinant human TrkA (6HIS tagged cytoplasmic domain from Invitrogen, Catalog No. PV3144) was incubated with 4 nM Alexa-Fluor® Tracer 236 (Invitrogen Cat. No. PV5592), 2 nM biotinylated anti-His (Invitrogen Cat. No. PV6090), and 2 nM europium-labeled Streptavidin (Invitrogen Cat. No. PV5899), in buffer (25 mM MOPS, pH 7.5, 5 mM MgCl2, 0.005% Triton X-100). Three fold serial dilutions of compounds of the invention in DMSO were added to a final percentage of 2% DMSO. After 60-minute incubation at 22° C., the reaction was measured using the EnVision mutlimode plate reader (PerkinElmer) via TR-FRET dual wavelength detection at […]. The percent of control was calculated using a ratiometric emission factor. The IC50 values were determined by fitting a four parameter model to the percent of control data.
Table A provides averaged IC50 values for compounds of the invention when tested in the assay of Example A, where A represents an averaged IC50 value<100 nM.
In the case of COCCN1C[C@@H](NC(=O)Nc2c(C)c(-c3ccc(=O)n(C)c3)nn2-c2ccccc2)[C@H](c2ccc(F)c(Cl)c2)C1 (relative stereo) [Example 22, 1-(trans-4-(3-chloro-4-fluorophenyl)-1-(2-methoxyethyl)pyrrolidin-3-yl)-3-(4-methyl-3-(1-methyl-6-oxo-1,6-dihydropyridin-3-yl)-1-phenyl-1H-pyrazol-5-yl)urea], the IC50 is reported as under 100 nM. COCCN1C[C@@H](NC(=O)Nc2c(C)c(-c3ccc(=O)n(C)c3)nn2-c2ccccc2)[C@H](c2ccc(Cl)c(F)c2)C1 (relative stereo) [Example 23, 1-(trans-4-(4-chloro-3-fluorophenyl)-1-(2-methoxyethyl)pyrrolidin-3-yl)-3-(4-methyl-3-(1-methyl-6-oxo-1,6-dihydropyridin-3-yl)-1-phenyl-1H-pyrazol-5-yl)urea] was tested, and the IC50 was under 100 nM. With COCCN1C[C@@H](NC(=O)Nc2c(C)c(-c3ccc(=O)n(C)c3)nn2-c2ccccc2)[C@H](c2cc(F)cc(Cl)c2)C1 (relative stereo) [Example 24, 1-(trans-4-(3-chloro-5-fluorophenyl)-1-(2-methoxyethyl)pyrrolidin-3-yl)-3-(4-methyl-3-(1-methyl-6-oxo-1,6-dihydropyridin-3-yl)-1-phenyl-1H-pyrazol-5-yl)urea] the IC50 was under 100 nM. COCCN1C[C@@H](NC(=O)Nc2c(C)c(-c3ccc(=O)n(C)c3)nn2-c2ccccc2)[C@H](c2cccc(Cl)c2)C1 (relative stereo) [Example 25, 1-(trans-4-(3-chlorophenyl)-1-(2-methoxyethyl)pyrrolidin-3-yl)-3-(4-methyl-3-(1-methyl-6-oxo-1,6-dihydropyridin-3-yl)-1-phenyl-1H-pyrazol-5-yl)urea] was tested, and the IC50 was under 100 nM. With COCCN1C[C@@H](NC(=O)Nc2c(C)c(-c3ccc(C)nc3)nn2-c2ccccc2)[C@H](c2ccc(F)c(F)c2)C1 [Example 1, 1-((3S,4R)-4-(3,4-difluorophenyl)-1-(2-methoxyethyl)pyrrolidin-3-yl)-3-(4-methyl-3-(6-methylpyridin-3-yl)-1-phenyl-1H-pyrazol-5-yl)urea] the IC50 was under 100 nM. Molecule COCCN1C[C@@H](NC(=O)Nc2c(C)c(-c3cccnc3F)nn2-c2ccccc2)[C@H](c2ccc(F)c(F)c2)C1 [Example 3, 1-((3S,4R)-4-(3,4-difluorophenyl)-1-(2-methoxyethyl)pyrrolidin-3-yl)-3-(3-(2-fluoropyridin-3-yl)-4-methyl-1-phenyl-1H-pyrazol-5-yl)urea] has an IC50 of under 100 nM. Work on COCCN1C[C@@H](NC(=O)Nc2c(C)c(-c3cccnc3C)nn2-c2ccccc2)[C@H](c2ccc(F)c(F)c2)C1 [Example 4, 1-((3S,4R)-4-(3,4-difluorophenyl)-1-(2-methoxyethyl)pyrrolidin-3-yl)-3-(4-methyl-3-(2-methylpyridin-3-yl)-1-phenyl-1H-pyrazol-5-yl)urea] yielded an IC50 of under 100 nM. COCCN1C[C@@H](NC(=O)Nc2c(C)c(-c3cncc(C)c3)nn2-c2ccccc2)[C@H](c2ccc(F)c(F)c2)C1 [Example 5, 1-((3S,4R)-4-(3,4-difluorophenyl)-1-(2-methoxyethyl)pyrrolidin-3-yl)-3-(4-methyl-3-(5-methylpyridin-3-yl)-1-phenyl-1H-pyrazol-5-yl)urea] gave an IC50 of under 100 nM. In the case of COCCN1C[C@@H](NC(=O)Nc2c(C)c(-c3cncc(C#N)c3)nn2-c2ccccc2)[C@H](c2ccc(F)c(F)c2)C1 [Example 7, 1-(3-(5-cyanopyridin-3-yl)-4-methyl-1-phenyl-1H-pyrazol-5-yl)-3-((3S,4R)-4-(3,4-difluorophenyl)-1-(2-methoxyethyl)pyrrolidin-3-yl)urea], the IC50 is reported as under 100 nM. With COCCN1C[C@@H](NC(=O)Nc2c(C)c(-c3ccc(OC)nc3)nn2-c2ccccc2)[C@H](c2ccc(F)c(F)c2)C1 [Example 8, 1-((3S,4R)-4-(3,4-difluorophenyl)-1-(2-methoxyethyl)pyrrolidin-3-yl)-3-(3-(6-methoxypyridin-3-yl)-4-methyl-1-phenyl-1H-pyrazol-5-yl)urea] the IC50 was under 100 nM. CCOc1ncc(-c2nn(-c3ccccc3)c(NC(=O)N[C@@H]3CN(CCOC)C[C@H]3c3ccc(F)c(F)c3)c2C)cn1 [Example 9, 1-((3S,4R)-4-(3,4-difluorophenyl)-1-(2-methoxyethyl)pyrrolidin-3-yl)-3-(3-(2-ethoxypyrimidin-5-yl)-4-methyl-1-phenyl-1H-pyrazol-5-yl)urea] gave an IC50 of under 100 nM. Molecule COCCN1C[C@@H](NC(=O)Nc2c(C)c(-c3cnc(C4CC4)nc3)nn2-c2ccccc2)[C@H](c2ccc(F)c(F)c2)C1 [Example 10, 1-(3-(2-cyclopropylpyrimidin-5-yl)-4-methyl-1-phenyl-1H-pyrazol-5-yl)-3-((3S,4R)-4-(3,4-difluorophenyl)-1-(2-methoxyethyl)pyrrolidin-3-yl)urea] has an IC50 of under 100 nM. Work on COCCN1C[C@@H](NC(=O)Nc2c(C)c(-c3cnc(C4CC4)nc3)nn2-c2ccccc2)[C@H](c2ccc(F)cc2)C1 [Example 11, 1-(3-(2-cyclopropylprimidin-5-yl)-4-methyl-1-phenyl-1H-pyrazol-5-yl)-3-((3S,4R)-4-(4-fluorophenyl)-1-(2-methoxyethyl)pyrrolidin-3-yl)urea] yielded an IC50 of under 100 nM. With COCCN1C[C@@H](NC(=O)Nc2c(C)c(-c3cnc(OC)nc3)nn2-c2ccccc2)[C@H](c2cc(F)cc(F)c2)C1 [Example 12, 1-((3S,4R)-4-(3,5-difluorophenyl)-1-(2-methoxyethyl)pyrrolidin-3-yl)-3-(3-(2-methoxypyrimidin-5-yl)-4-methyl-1-phenyl-1H-pyrazol-5-yl)urea] the IC50 was under 100 nM. In the case of COCCN1C[C@@H](NC(=O)Nc2c(C)c(-c3cnc(C)nc3)nn2-c2ccccc2)[C@H](c2ccc(F)cc2)C1 [Example 13, 1-((3S,4R)-4-(4-fluorophenyl)-1-(2-methoxyethyl)pyrrolidin-3-yl)-3-(4-methyl-3-(2-methylpyrimidin-5-yl)-1-phenyl-1H-pyrazol-5-yl)urea], the IC50 is reported as under 100 nM. For CCOc1ncc(-c2nn(-c3ccccc3)c(NC(=O)N[C@@H]3CN(CCOC)C[C@H]3c3ccc(F)cc3)c2C)cn1 [Example 15, 1-(3-(2-ethoxypyrimidin-5-yl)-4-methyl-1-phenyl-1H-pyrazol-5-yl)-3-((3S,4R)-4-(4-fluorophenyl)-1-(2-methoxyethyl)pyrrolidin-3-yl)urea], the IC50 was under 100 nM. Work on CCOc1ncc(-c2nn(-c3ccccc3)c(NC(=O)N[C@@H]3CN(CCOC)C[C@H]3c3cc(F)cc(F)c3)c2C)cn1 [Example 16, 1-((3S,4R)-4-(3,5-difluorophenyl)-1-(2-methoxyethyl)pyrrolidin-3-yl)-3-(3-(2-ethoxypyrimidin-5-yl)-4-methyl-1-phenyl-1H-pyrazol-5-yl)urea] yielded an IC50 of under 100 nM. With COCCN1C[C@@H](NC(=O)Nc2c(C)c(-c3ccc(=O)n(C)n3)nn2-c2ccccc2)[C@H](c2ccc(F)c(F)c2)C1 [Example 17, 1-((3S,4R)-4-(3,4-difluorophenyl)-1-(2-methoxyethyl)pyrrolidin-3-yl)-3-(4-methyl-3-(1-methyl-6-oxo-1,6-dihydropyridazin-3-yl)-1-phenyl-1H-pyrazol-5-yl)urea] the IC50 was under 100 nM. COCCN1C[C@@H](NC(=O)Nc2c(C)c(-c3ccc(=O)n(C)n3)nn2-c2ccccc2)[C@H](c2ccc(F)cc2)C1 [Example 18, 1-((3S,4R)-4-(4-fluorophenyl)-1-(2-methoxyethyl)pyrrolidin-3-yl)-3-(4-methyl-3-(1-methyl-6-oxo-1,6-dihydropyridazin-3-yl)-1-phenyl-1H-pyrazol-5-yl)urea] gave an IC50 of under 100 nM. Molecule COCCN1C[C@@H](NC(=O)Nc2c(C)c(-c3ccc(=O)n(C)n3)nn2-c2ccccc2)[C@H](c2cc(F)cc(F)c2)C1 [Example 19, 1-((3S,4R)-4-(3,5-difluorophenyl)-1-(2-methoxyethyl)pyrrolidin-3-yl)-3-(4-methyl-3-(1-methyl-6-oxo-1,6-dihydropyridazin-3-yl)-1-phenyl-1H-pyrazol-5-yl)urea] has an IC50 of under 100 nM. Work on COCCN1C[C@@H](NC(=O)Nc2c(C)c(-c3cnc(NC4CC4)nc3)nn2-c2ccccc2)[C@H](c2ccc(F)c(F)c2)C1 [Example 20, 1-(3-(2-(cyclopropylamino)pyrimidin-5-yl)-4-methyl-1-phenyl-1H-pyrazol-5-yl)-3-((3S,4R)-4-(3,4-difluorophenyl)-1-(2-methoxyethyl)pyrrolidin-3-yl)urea] yielded an IC50 of under 100 nM. COCCN1C[C@@H](NC(=O)Nc2c(C)c(-c3cnc(NC4CC4)nc3)nn2-c2ccccc2)[C@H](c2ccc(F)cc2)C1 [Example 21, 1-(3-(2-(cyclopropylamino)pyrimidin-5-yl)-4-methyl-1-phenyl-1H-pyrazol-5-yl)-3-((3S,4R)-4-(4-fluorophenyl)-1-(2-methoxyethyl)pyrrolidin-3-yl)urea di-trifluoroacetate] gave an IC50 of under 100 nM. For COCCN1C[C@@H](NC(=O)Nc2c(C)c(-c3ccc(=O)n(C)c3)nn2-c2ccccc2)[C@H](c2cc(F)c(F)c(F)c2)C1 [Example 26, 1-((3S,4R)-1-(2-methoxyethyl)-4-(3,4,5-trifluorophenyl)pyrrolidin-3-yl)-3-(4-methyl-3-(1-methyl-6-oxo-1,6-dihydropyridin-3-yl)-1-phenyl-1H-pyrazol-5-yl)urea], the IC50 was under 100 nM. Work on COCCN1C[C@@H](NC(=O)Nc2c(C)c(-c3ccc(=O)n(C)c3)nn2-c2ccccc2)[C@H](c2cccc(F)c2)C1 [Example 27, 1-((3S,4R)-4-(3-fluorophenyl)-1-(2-methoxyethyl)pyrrolidin-3-yl)-3-(4-methyl-3-(1-methyl-6-oxo-1,6-dihydropyridin-3-yl)-1-phenyl-1H-pyrazol-5-yl)urea] yielded an IC50 of under 100 nM.
